In patent US6770674B1, “Mollusc repellent” (priority 1998, dated 2004):
Values joined by “and” are separate entries in the source; they are usually repeats but may differ in a detail not shown here. Identical values can stand only once.

Columns and labels:
Rat = settings: oral; cited from earlier work
snail, Cernuella virgata = experiment: Repellency of copper oxalate in a PVA coating (paint) composition on paper towel (Example 4); format: in vivo
Source text: In the following experiment, the repellency of copper oxalate was investigated when incorporated in a paint composition. In this example, the carrier used was a common aqueous PVA solution sold in Australia under the brand name of Bond Crete.
Thirty-three 1 liter containers were used each with 3 layers of paper towel covering the bottom of the container. Half of the uppermost surface of each of the paper towels was coated with a solution made from 1 part copper oxalate: 10 parts water: 1 part PVA emulsion. This coating was applied at a rate of about 2 ml per 100 cm2 and allowed to dry. The towel was then moistened with approximately 20 ml of water. One snail, Cernuella virgata, was placed in the centre of the paper towels at the border of the coated and the uncoated half in each container. […] The snails consumed some of the untreated paper. […] After 7 days, the number of snails on the treated and untreated sections of the paper towel were counted, together with the number on the sides and lid of the container.

juvenile Helix aspersa = experiment: Attractancy/repellency test, sectorised filter technique of Bowen and Antoine; format: in vivo; set-up: key to Final Position: R: roof of the container; T: test sector; C: control sector; settings: for % Sector Eaten Control / % Sector Eaten Test: overnight; for repellency to snails (summary in words): arena trials, Helix aspersa
Method: One sector of the filter paper was used as the control and this was moistened with distilled water (1 ml). The other half was moistened with the test compound. […] The paper containing the copper oxalate was moistened with water after the addition of the chemical.
Filter sectors were placed on the lid of a plastic tub. The tub was inverted and was used to make a closed test arena. A small gap of 2 mm was left between the two filter sectors so as to prevent mixing of the test paper with the control. One juvenile Helix aspersa was introduced to the control sector and was allowed to remain in the arena overnight.
Attractancy/repellency was detected by dusting the filter paper with charcoal to reveal the slug trails. The results were quantified by placing a transparent grid over the test sectors and measuring the area covered by snail trails. Any phagostimulatory effect of the test compound was indicated by the consumption of the treated paper.

[1] = tested on: slug, Deroceras reticulatum; experiment: Protection of wheat and pea seeds compared to BAYSOL and […] (Example 3); format: in vivo
Method: In the following experiment, the efficacy of copper oxalate for the protection of seeds was tested and compared to BAYSOL® and […]®. Seeds were coated with an aqueous suspension of copper oxalate, dried and fed to the slug, Deroceras reticulatum.

[2] = tested on: slug, Deroceras reticulatum; experiment: Protection of coated seeds fed to slugs (Example 2); format: in vivo; settings: for % Seeds damaged Broad beans After 7 days: coated broad beans; for % Seeds damaged Pea seeds After 5 days / % Seeds damaged Pea seeds After 7 days: coated pea seeds; for % Seeds damaged Wheat seeds After 5 days / % Seeds damaged Wheat seeds After 7 days: coated wheat seeds
Source text: In the following experiment, various seeds were coated with copper oxalate and ferric potassium oxalate, respectively and fed to the slug, Deroceras reticulatum. The damage to these seeds was compared to damage to control seeds, which were left untreated.

Human = settings: oral; cited from earlier work
[3] = after 7 days, 33 containers with one snail each, same coating

In the case of Copper acetate, the “LD50 (Rat)” value (Rat) is listed as 595 mg/kg.

With `O=C([O-])C(=O)[O-].[Cu+2]` [Copper oxalate, copper oxalate] the “repellency in a coating composition (summary in words)” value (snail, Cernuella virgata; PVA coating composition) was “functions effectively as a mollusc repellent”, the “No. of snails in area: On lid of container” value (snail, Cernuella virgata; after 7 days, 33 containers with one snail each, coating 1 part copper oxalate: 10 parts water: 1 part PVA emulsion) was 1 and the “No. of snails in area: On Treated half of paper” value (snail, Cernuella virgata; [3]) was 8. For the same compound, the “No. of snails in area: On side of container” value (snail, Cernuella virgata; [3]) was 1, the “No. of snails in area: On untreated half of paper” value (snail, Cernuella virgata; [3]) was 23 and the “consumption of the treated paper” value (snail, Cernuella virgata; coated half of paper towel, 7 days) was “No consumption”. The “% Sector Eaten Control” value (juvenile Helix aspersa; 1.61 mg/cm2, control sector of same arena) was 4%, the “Final Position” value (juvenile Helix aspersa; 1.61 mg/cm2, overnight) was “R” and the “% Sector Eaten Test” value (juvenile Helix aspersa; 1.61 mg/cm2, test sector) was 0%. For the same compound, the “% Covered Control” value (juvenile Helix aspersa; 1.61 mg/cm2, trail cover of control sector of same arena) was 88%, the “% Covered Test” value (juvenile Helix aspersa; 1.61 mg/cm2, trail cover of test sector) was 4.4% and the “% Sector Eaten Control” value (juvenile Helix aspersa; 2.11 mg/cm2, control sector of same arena) was 5%. For the same compound, the “Final Position” value (juvenile Helix aspersa; 2.11 mg/cm2, overnight) was “R”, the “% Sector Eaten Test” value (juvenile Helix aspersa; 2.11 mg/cm2, test sector) was 0% and the “% Covered Control” value (juvenile Helix aspersa; 2.11 mg/cm2, trail cover of control sector of same arena) was 71.1%. For the same compound, the “% Covered Test” value (juvenile Helix aspersa; 2.11 mg/cm2, trail cover of test sector) was 0%, the “% Sector Eaten Control” value (juvenile Helix aspersa; 2.43 mg/cm2, control sector of same arena) was 2% and the “Final Position” value (juvenile Helix aspersa; 2.43 mg/cm2, overnight) was “R”. The “% Sector Eaten Test” value (juvenile Helix aspersa; 2.43 mg/cm2, test sector) was 0%, the “% Covered Control” value (juvenile Helix aspersa; 2.43 mg/cm2, trail cover of control sector of same arena) was 68.9% and the “% Covered Test” value (juvenile Helix aspersa; 2.43 mg/cm2, trail cover of test sector) was 0%. The “% Sector Eaten Control” value (juvenile Helix aspersa; 2.47 mg/cm2, control sector of same arena) was 5%, the “Final Position” value (juvenile Helix aspersa; 2.47 mg/cm2, overnight) was “R” and the “% Sector Eaten Test” value (juvenile Helix aspersa; 2.47 mg/cm2, test sector) was 0%. For the same compound, the “% Covered Control” value (juvenile Helix aspersa; 2.47 mg/cm2, trail cover of control sector of same arena) was 86.7%, the “% Covered Test” value (juvenile Helix aspersa; 2.47 mg/cm2, trail cover of test sector) was 0% and the “% Sector Eaten Control” value (juvenile Helix aspersa; 3.19 mg/cm2, control sector of same arena) was 2%. For the same compound, the “Final Position” value (juvenile Helix aspersa; 3.19 mg/cm2, overnight) was “C”, the “% Sector Eaten Test” value (juvenile Helix aspersa; 3.19 mg/cm2, test sector) was 0% and the “% Covered Control” value (juvenile Helix aspersa; 3.19 mg/cm2, trail cover of control sector of same arena) was 88%. The “% Covered Test” value (juvenile Helix aspersa; 3.19 mg/cm2, trail cover of test sector) was 0%, the “% Sector Eaten Control” value (juvenile Helix aspersa; 3.46 mg/cm2, control sector of same arena) was 1% and the “Final Position” value (juvenile Helix aspersa; 3.46 mg/cm2, overnight) was “R”. For the same compound, the “% Sector Eaten Test” value (juvenile Helix aspersa; 3.46 mg/cm2, test sector) was 0%, the “% Covered Control” value (juvenile Helix aspersa; 3.46 mg/cm2, trail cover of control sector of same arena) was 66.7% and the “% Covered Test” value (juvenile Helix aspersa; 3.46 mg/cm2, trail cover of test sector) was 4.4%. For the same compound, the “repellency to snails (summary in words)” value (juvenile Helix aspersa) was “strongly repelled”, the “% Seeds damaged Pea seeds After 7 days” value ([1]; pea seeds, 7 days) was 8% and the “% Seeds damaged Wheat seeds After 9 days” value ([1]; wheat seeds, 9 days) was 10%. The “% Seeds damaged Broad beans After 7 days” value [2] was 5%, the “% Seeds damaged Pea seeds After 5 days” value [2] was 7% and the “% Seeds damaged Pea seeds After 7 days” value [2] was 7%. The “% Seeds damaged Wheat seeds After 5 days” value [2] was 0%, the “% Seeds damaged Wheat seeds After 7 days” value [2] was 2% and the “slug repellency for seeds (summary in words)” value ([2]; wheat and pea seeds) was “very effective slug repellent”.

In the case of “cetyl tertiary ammonium bromide [CeTAB, reference compound]”, the “% Sector Eaten Control” value (juvenile Helix aspersa; 0.2 mg/cm2, control sector of same arena) is reported as 4% and 1% and 2%, the “Final Position” value (juvenile Helix aspersa; 0.2 mg/cm2, overnight) is reported as “R” and the “% Sector Eaten Test” value (juvenile Helix aspersa; 0.2 mg/cm2, test sector) is reported as 0%. For the same compound, the “% Covered Control” value (juvenile Helix aspersa; 0.2 mg/cm2, trail cover of control sector of same arena) was 77.8% and 75.6% and 86.7%, the “% Sector Eaten Control” value (juvenile Helix aspersa; 2.0 mg/cm2, control sector of same arena) was 4% and 5% and 3% and the “Final Position” value (juvenile Helix aspersa; 2.0 mg/cm2, overnight) was “R”. The “% Sector Eaten Test” value (juvenile Helix aspersa; 2.0 mg/cm2, test sector) was 0%, the “% Covered Control” value (juvenile Helix aspersa; 2.0 mg/cm2, trail cover of control sector of same arena) was 62.2% and 66.6% and 71.1% and the “% Covered Test” value (juvenile Helix aspersa; 2.0 mg/cm2, trail cover of test sector) was 0%. For the same compound, the “repellency to snails (summary in words)” value (juvenile Helix aspersa) was “act as a repellent”.

In the case of `[Cu+2].[OH-].[OH-]` [Copper hydroxide], the “LD50 (Human)” value (Human) is listed as 200 mg/kg.

With `O=C([O-])C(=O)[O-].O=C([O-])C(=O)[O-].O=C([O-])C(=O)[O-].[Fe+3].[K+].[K+].[K+]` [Ferric potassium oxalate, ferric potassium oxalate] the “% Seeds damaged Broad beans After 7 days” value [2] was 0%, the “% Seeds damaged Pea seeds After 5 days” value [2] was 15% and the “% Seeds damaged Pea seeds After 7 days” value [2] was 17%. The “% Seeds damaged Wheat seeds After 5 days” value [2] was 3% and the “% Seeds damaged Wheat seeds After 7 days” value [2] was 20%.

For `[Cl-].[Cu+2].[Cu+2].[OH-].[OH-].[OH-]` [Copper oxychloride], the “LD50 (Rat)” value (Rat) is listed as 700 mg/kg.
